Among the data in PubChem BioAssay (NCI) are TGI values, retold here.

Among the test systems are UACC-257 melanoma; MALME-3M melanoma; RPMI-8226 leukemia; CAKI-1 renal; UO-31 renal; 786-0 renal; DU-145 prostate; SK-OV-3 ovarian; HT29 colon; HCT-15 colon; SR leukemia; IGROV1 ovarian; SF-539 CNS; A549 NSCLC; SK-MEL-28 melanoma; UACC-62 melanoma; NCI-H460 lung; SN12C renal.
What all share (assay): growth of human tumour cells (NCI), 48 h

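Dose response: 5 concentrations. Exposure: 48 h. Format: 96-well plates. Endpoint: linear interpolation; highest concentration if not reached. The concentration for full growth arrest is given as TGI.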

For `CC(=O)Nc1ccc(-c2nc3ccccc3s2)cc1Cl`, the TGI with UACC-257 melanoma, in the assay with MALME-3M melanoma, in the assay with RPMI-8226 leukemia, with CAKI-1 renal, in the assay with UO-31 renal and in the assay on 786-0 renal was more than 100 µM throughout. Besides, the TGI with DU-145 prostate is more than 92.4 µM; in the assay on SK-OV-3 ovarian, more than 100 µM; in the assay with HT29 colon, more than 100 µM; in the assay with HCT-15 colon, more than 100 µM; in the assay with SR leukemia, more than 100 µM; in the assay on IGROV1 ovarian, more than 100 µM. For the same compound, the TGI in the assay on SF-539 CNS, in the assay with A549 NSCLC, with SK-MEL-28 melanoma, in the assay with UACC-62 melanoma, in the assay with NCI-H460 lung and with SN12C renal was more than 100 µM in each case.
